The values below come from paper PMC6355894, “Cryo-EM structure of the essential ribosome assembly AAA-ATPase Rix7” (Nature Communications, 2019).

The stoichiometry N is the number of molecules, sites or subunits per partner or assembly.

For one experiment, the target named is T1, CT Rix7 (Thermochaetoides thermophila, UniProt G0RZG1, E303Q/E602Q).
T1 construct: gene CTHT_0002840; full-length (NTD residues 1-192 not seen in map), codon-optimised, pET24b, C-terminal His6, expressed in E. coli BL21(DE3)*; asymmetric homohexamer
As to the kind of experiment: cryo-EM structure of the complex ([…] A). The note with it: co-purified nucleotide, no ATP added; 5 mM MgCl2, pH 8; nucleotide-binding pockets of D1 and D2 AAA domains; ATP geometry restrained to reference structure.

For experiment [1], the target named is Chaetomium thermophilum Rix7 double Walker B mutant (CT Rix7 E303Q/E602Q) (Chaetomium thermophilum). Kind of experiment: cryo-EM structure; CT Rix7 E303Q/E602Q at ~0.6 mg/ml after SEC in Buffer A (20 mM Tris-HCl pH 8, 150 mM NaCl, 5 mM MgCl2, 0.5 mM DTT); no ATP and no substrate added; no symmetry imposed (C1); 4.5 Å.

T1 sequence (G0RZG1 entry or part of it E303Q/E602Q): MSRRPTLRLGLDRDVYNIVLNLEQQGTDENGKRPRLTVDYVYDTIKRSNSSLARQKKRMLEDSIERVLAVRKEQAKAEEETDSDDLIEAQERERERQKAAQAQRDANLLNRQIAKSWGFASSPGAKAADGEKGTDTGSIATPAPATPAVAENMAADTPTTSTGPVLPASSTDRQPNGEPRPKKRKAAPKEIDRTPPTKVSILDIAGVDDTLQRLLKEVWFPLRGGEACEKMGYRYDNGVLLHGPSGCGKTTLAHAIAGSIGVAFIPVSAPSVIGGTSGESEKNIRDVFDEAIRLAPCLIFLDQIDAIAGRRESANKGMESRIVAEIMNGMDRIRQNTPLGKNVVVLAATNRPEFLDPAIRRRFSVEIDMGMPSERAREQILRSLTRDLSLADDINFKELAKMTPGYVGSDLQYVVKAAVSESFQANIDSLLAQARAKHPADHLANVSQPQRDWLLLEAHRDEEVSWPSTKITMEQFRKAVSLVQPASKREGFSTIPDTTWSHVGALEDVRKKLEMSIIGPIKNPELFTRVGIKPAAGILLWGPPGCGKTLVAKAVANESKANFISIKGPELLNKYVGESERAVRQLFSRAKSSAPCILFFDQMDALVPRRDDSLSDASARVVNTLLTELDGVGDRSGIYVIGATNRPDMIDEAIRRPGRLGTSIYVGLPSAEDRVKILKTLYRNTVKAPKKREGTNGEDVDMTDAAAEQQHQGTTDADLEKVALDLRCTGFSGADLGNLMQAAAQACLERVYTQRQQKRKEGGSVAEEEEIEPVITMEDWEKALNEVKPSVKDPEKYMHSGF

On to `Nc1ncnc2c1ncn2[C@@H]1O[C@H](COP(=O)(O)OP(=O)(O)OP(=O)(O)O)[C@@H](O)[C@H]1O` [ATP], for which the “cryo-EM structure of the complex (4.5 A)” value at CT Rix7 was “In the D1 AAA domain, ATP is present in the nucleotide pockets of all six protomers”. In turn, “Chaetomium thermophilum Rix7 double Walker B mutant (CT Rix7 E303Q/E602Q) (enzyme)” yielded a stoichiometry N in experiment [1] of 6.
